Source: US9862730B2, “Imidazothiadiazole derivatives as protease activated receptor 4 (PAR4) inhibitors for treating platelet aggregation” (BRISTOL-MYERS SQUIBB COMPANY, priority 2012, dated 2018)

Legend:
[1] = system: electrolytic injury-induced carotid artery thrombosis; assay: Cynomolgus monkey electrolytic injury-induced carotid artery thrombosis model; assay type: in vivo; details: oral, dose response
Text: The efficacy of the PAR4 antagonists of the present invention in preventing thrombosis can also be measured in a variety of in vivo assays. Exemplary mammals that can provide models of thrombosis and hemostasis to test the effectiveness of the PAR4 antagonists of the present invention as antithrombotic agents include, but are not limited to, guinea pigs and primates. Relevant efficacy models include, but are not limited to, electrolytic injury-induced carotid artery thrombosis, FeCl3-induced carotid artery thrombosis and arteriovenous-shunt thrombosis. […]
On the day of the study, compounds or vehicles were administered orally at 1 to 2 hours before the experiment. […] Blood pressure and heart rate were monitored to maintain normal vital signs.
Carotid blood flow was measured with an appropriately sized TRANSONIC® flow probe and a TRANSONIC® perivascular flowmeter (TS420 Model, Transonic Systems Inc., Ithaca, N.Y.). It was continuously recorded over a 90-min period to monitor thrombosis-induced occlusion. Integrated carotid blood flow was measured by the area under the flow-time curve. It was expressed as percent of total control carotid blood flow, which would result if control blood flow had been maintained continuously for 90 min. […]

PAR4 = PAR4 (Homo sapiens (Human), UniProt Q96RI0); assay: FLIPR assay in PAR4-expressing HEK293 cells (PAR4 antagonist activity, calcium mobilization); assay type: cell-based; details: FLIPR assay as described in Example A
Procedure, shortened: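 Calcium-flux antagonist readout: compounds preincubated 30 min at room temperature with PAR4-transfected HEK293 cells in HBSS with 10 mM HEPES (0.67% DMSO final), then agonist peptide added. Agonist activity checked on compound addition; cells carry endogenous PAR1.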

[2] = system: platelet aggregation in human PRP; assay: Tissue factor-induced platelet aggregation assay; assay type: cell-based; details: tissue factor and CaCl2
Text: Example E is a tissue factor-induced platelet aggregation assay. The conditions in this assay mimic the physiological events during thrombus formation. In this assay, platelet aggregation in human PRP was initiated by the addition of tissue factor and CaCl2. Tissue factor, the initiator of the extrinsic coagulation cascade, is highly elevated in human atherosclerotic plaque. Exposure of blood to tissue factor at the atherosclerotic site triggers a robust generation of thrombin and induces the formation of obstructive thrombi.
The platelet rich plasma was isolated by centrifugation at 170 g for 14 minutes.
The ability of PAR1 or PAR4 antagonist to inhibit platelet aggregation induced by endogenous thrombin was tested in a tissue factor driven aggregation assay. The compounds were pre-incubated with PRP for 2 min (FIGS. 3 and 4). Aggregation is initiated by addition of CaCl2 and recombinant human tissue factor, which results in the generation of thrombin through activation of the coagulation pathway in the plasma. Anticoagulant agents such as corn trypsin inhibitor (Haematologic Technologies, Essex Junction, Vt.) at 50 μg/ml and PEFABLOC® FG (Centerchem, Norwalk, Conn.) are also added to the sample to prevent fibrin clot formation during the time of the study. Platelet aggregation is monitored using standard instrumentation including optical aggregometer or impedance aggregometer.

Chain of PAR4 (Q96RI0 18-385): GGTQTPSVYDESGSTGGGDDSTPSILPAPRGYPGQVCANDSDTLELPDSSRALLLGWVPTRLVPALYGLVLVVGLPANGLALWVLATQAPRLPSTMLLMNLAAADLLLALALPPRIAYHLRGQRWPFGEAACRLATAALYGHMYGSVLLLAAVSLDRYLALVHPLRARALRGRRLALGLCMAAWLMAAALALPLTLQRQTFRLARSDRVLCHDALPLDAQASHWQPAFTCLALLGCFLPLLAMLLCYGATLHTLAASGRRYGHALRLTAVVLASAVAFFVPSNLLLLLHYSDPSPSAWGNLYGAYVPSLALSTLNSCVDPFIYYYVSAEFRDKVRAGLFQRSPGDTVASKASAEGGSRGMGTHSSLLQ

Row | Structure (SMILES) | antithrombotic efficacy / inhibition of thrombus formation (FIG. 5) [1] | IC50 (PAR4) [nM] | inhibition of tissue factor-induced platelet aggregation (FIGS. 3 and 4) [2]
1 | COc1cc(OCc2cccc(OCc3ccccc3)c2)c2cc(-c3cn4nc(OC)sc4n3)oc2c1 [Example 205, 6-(4-((3-(Benzyloxy)benzyl)oxy)-6-methoxybenzofuran-2-yl)-2-methoxyimidazo[2,1-b][1,3,4]thiadiazole] | demonstrating the in vivo antithrombotic efficacy | – | –
2 | COc1cc(OC)c2cc(-c3cn4nc(OC)sc4n3)oc2c1 [Example 73] | – | 0.99 | effective inhibition
